Data set [1] in a line: Half life in mouse liver microsomes in absence of NADPH. The format is ADME, microsome. On the technique in general: Liver microsomes are a subcellular fraction often used to study metabolism.
In data set [2] the test system is Mycobacterium tuberculosis. The data set is described as follows: Antitubercular activity against Mycobacterium tuberculosis H37Rv ATCC 27294 using GAST/Fe medium after 1 week in absence of guanine by broth microdilution method. The settings on record: H37Rv ATCC 27294, 168 h. The format is functional.
A further data set addresses T1, GMP reductase 2 (Homo sapiens, UniProt Q9P2T1).
T1 sequence (Q9P2T1 whole entry): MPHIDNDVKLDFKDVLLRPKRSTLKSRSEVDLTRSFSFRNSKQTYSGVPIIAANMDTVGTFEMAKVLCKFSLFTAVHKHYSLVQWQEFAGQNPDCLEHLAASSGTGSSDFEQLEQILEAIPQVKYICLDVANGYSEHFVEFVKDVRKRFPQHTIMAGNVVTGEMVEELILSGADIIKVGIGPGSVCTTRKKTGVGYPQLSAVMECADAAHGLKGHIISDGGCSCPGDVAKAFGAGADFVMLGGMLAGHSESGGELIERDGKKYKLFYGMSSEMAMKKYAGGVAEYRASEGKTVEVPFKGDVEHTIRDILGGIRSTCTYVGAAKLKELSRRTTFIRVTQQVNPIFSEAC
The data set is described as follows: Inhibition of human GMPR2 using GMP as substrate by spectrophotometric method. Conditions: read-out: Ki(app).

The target in data set [3] is Inosine-5'-monophosphate dehydrogenase 2 (Homo sapiens, UniProt P12268). Description: Inhibition of human IMPDH2 using IMP as substrate by spectrophotometric method. Conditions: read-out: Ki(app).
In data set [4] the test system is Mycobacterium tuberculosis. The data set is described as follows: Antitubercular activity against Mycobacterium tuberculosis H37Rv ATCC 27294 using 7H9/ADC/Tween medium after 1 week in presence of guanine by broth microdilution method. It counts as functional. The settings on record: H37Rv ATCC 27294, 168 h. For orientation: Dilution methods test growth across graded concentrations, often in twofold steps.

For data set [5], the system named is Mycobacterium tuberculosis. Description: Antitubercular activity against Mycobacterium tuberculosis H37Rv ATCC 27294 using 7H9/ADC/Tween medium after 1 week in absence of guanine by broth microdilution method. The settings on record: H37Rv ATCC 27294, 168 h. It counts as functional.
The subject of data set [6] is Mycobacterium tuberculosis. Description: Antitubercular activity against Mycobacterium tuberculosis H37Rv ATCC 27294 using GAST/Fe medium after 1 week in presence of guanine by broth microdilution method. The format is functional. The settings on record: H37Rv ATCC 27294, 168 h.
The subject of data set [7] is Mycobacterium tuberculosis. Description: Antitubercular activity against Mycobacterium tuberculosis H37Rv ATCC 27294 using GAST/Fe medium after 2 weeks in absence of guanine by broth microdilution method. The format is functional, organism-based.
Data set [8] concerns Mycobacterium tuberculosis. The data set is described as follows: Antitubercular activity against Mycobacterium tuberculosis H37Rv ATCC 27294 using 7H9/ADC/Tween medium after 2 weeks in absence of guanine by broth microdilution method. The format is functional, organism-based.
Data set [9] concerns HepG2. Description: Cytotoxicity against human HepG2 cells assessed as LDH release at 25 uM after 24 hrs relative to control. The format is cell-based. Conditions: hepg2, 24 h.
The nature of data set [10]: (§1) Cytotoxicity against human HepG2 cells after 24 hrs by LDH release assay. The format is cell-based. Conditions: HepG2 cells, read-out: LD50. In general terms: Release of lactate dehydrogenase indicates damage to the cell membrane.
A short description of data set [11]: Drug metabolism in mouse plasma after 2 hrs. It counts as ADME, cell-free.
Data set [12] is described as follows: Cmax in mouse at 20 mg/kg, po. The format is ADME, organism-based. The arrangement: dose 20 mg/kg, route oral. Conditions: in vivo.
The next data set concerns HeLa. Description: Cytotoxicity against human HeLa cells assessed as LDH release at 25 uM after 24 hrs relative to control. It counts as cell-based.
A short description of data set [13]: Protein binding in mouse serum at 20 mg/kg, po. The format is ADME, organism-based. Conditions: read-out: PB.
Data set [14] can be described thus: Elimination half life in mouse plasma at 20 mg/kg, po. It counts as ADME, organism-based. The settings on record: read-out: beta t1/2 (converted).
The subject of data set [15] is Mycobacterium tuberculosis. The data set is described as follows: Antitubercular activity against Mycobacterium tuberculosis H37Rv ATCC 27294 using 7H9/ADC/Tween medium after 1 week in absence of guanine and presence of anhydrotetracycline by Alamar blue assay. It counts as functional. The settings on record: H37Rv ATCC 27294, 168 h.
Data set [16] is described as follows: Tmax in mouse at 20 mg/kg, po. Conditions: in vivo. The format is ADME, organism-based.
The next data set relates to HEK-293T. The data set is described as follows: Cytotoxicity against human HEK293T cells assessed as LDH release at 25 uM after 24 hrs relative to control. The format is cell-based.
The nature of data set [17]: Half life in mouse liver microsomes in presence of NADPH. The format is ADME, microsome.
The subject of the next data set is MCF7. Description: Cytotoxicity against human MCF7 cells assessed as LDH release at 25 uM after 24 hrs relative to control. Conditions: mcf7, 24 h. The format is cell-based.
The subject of data set [18] is HepG2. The description is as §1. Conditions: hepg2, 24 h. It counts as cell-based.

15 molecules from ChEMBL document CHEMBL4184333, “Expanding Benzoxazole-Based Inosine 5'-Monophosphate Dehydrogenase (IMPDH) Inhibitor Structure-Activity As Potential Antituberculosis Agents” (J Med Chem, 2018) can be followed below.

pKi: −log10 of the molar value. In brackets after ≈: the same amount, converted by molar mass. Activity calls are given as the source filed them. The calls are words filed in the database; no cut-off is given here.

With `C[C@H](Oc1cccc(Cl)c1Cl)C(=O)Nc1ccc2oc(-c3ccc(OCC(=O)O)cc3)nc2c1`, the t1/2 in data set [1] was found to be 23 min. Moreover, the MIC in data set [2] came to 2 µM (≈ 1 µg/mL); in data set [4], 20 µM; in data set [5], 9 µM (≈ 4.51 µg/mL); in data set [6] it was 4 µM. In addition, the negative logarithm of the Ki (pKi) (at GMP reductase 2; in data set [3]) was under 5.30 each time.
As to `C[C@H](Nc1cccc(Cl)c1Cl)C(=O)Nc1ccc2oc(-c3ccc(C#N)cc3)nc2c1`, the MIC in [2] amounted to 4 µM (≈ 1.81 µg/mL); in data set [4], 6 µM; in data set [5] it was 3 µM (≈ 1.35 µg/mL); in data set [6] it was 13 µM. Moreover, the outcome in [7] and in data set [8] was Active. The pKi was under 5.30 on GMP reductase 2 and 5.48 in [3].
Take `COc1ccc(-c2nc3cc(NC(=O)[C@H](C)Oc4ccccc4C#N)ccc3o2)cc1`: the Activity in the data set on HepG2 [9] fell in the range of 9 to 13%. For the same molecule, the minimum inhibitory concentration (MIC) in data set [2] was 3.1 µM (≈ 1.28 µg/mL); in data set [4] it was 4.7 µM; in data set [5], 1.2 µM (≈ 0.496 µg/mL); in data set [6], 6.3 µM. For the same molecule, the result in data set [7] and in data set [8] was Active. In addition, the negative-log Ki (pKi) (at GMP reductase 2; in [3]) was under 5.30 in each case. Also, the CC50 at 24 h in [10] was over 25 µM.
For the molecule `C[C@H](Nc1cccc(F)c1F)C(=O)Nc1ccc2oc(-c3ccc(C#N)cc3)nc2c1`, the Activity in the data set on HepG2 [9] is 9 to 13%; in the data set with HeLa it was under 10%; with HEK-293T, under 10%; with MCF7 it was under 10%. Also, the MIC in [2] was 2 µM (≈ 0.837 µg/mL); in [15], 3.1 µM; in data set [4], 1.4 µM; in data set [5], 1 to 3.1 µM (≈ 0.418 to 1.3 µg/mL); in [6] it was 6 µM. In addition, the result in data set [7] and in data set [8] was Active. Moreover, the Drug metabolism result in data set [11] is “Metabolite_Notdetected”. Further, in data set [12], the peak level (Cmax) was 3000 nM. The pKi (at GMP reductase 2; in data set [3]) was under 5.30 each time. For the same molecule, the fraction unbound in [13] is under 0.01. Besides, in data set [14], the half-life was 300 min. For the same molecule, in data set [10], the CC50 at 24 h was over 25 µM. The Tmax in [16] was 30 min. The t1/2 in data set [17] was 26 min.
`C[C@H](Oc1cccc(F)c1F)C(=O)Nc1ccc2oc(-c3ccc(C#N)cc3)nc2c1`: in the data set on HepG2 [9], the Activity lay within 9 to 13%. Further, the MIC in data set [2] was 3 µM (≈ 1.26 µg/mL); in [4], 4 µM; in [5] it was 1.5 µM (≈ 0.629 µg/mL); in data set [6] it was 6.3 µM. The pKi is under 5.30 on GMP reductase 2 and 5.70 in data set [3]. Also, the CC50 at 24 h in data set [10] is over 25 µM.
Take `CCOC(=O)COc1ccc(-c2nc3cc(NC(=O)[C@H](C)Oc4cccc(Cl)c4Cl)ccc3o2)cc1`: the t1/2 in [1] was 1.3 min. For the same molecule, the MIC in data set [2] is 0.4 µM (≈ 0.212 µg/mL); in [4] it was 0.23 µM; in data set [5], 0.2 to 3.1 µM (≈ 0.106 to 1.64 µg/mL); in data set [6] it was 0.5 µM. Moreover, the result in data set [7] and in data set [8] was Active. The negative logarithm of the Ki (pKi) (on GMP reductase 2; in data set [3]) was under 5.30 throughout. In addition, in the data set with HepG2 [18], the Activity entry is listed as “Non-Toxic”.
`C[C@H](Oc1cccc(F)c1F)C(=O)Nc1ccc2oc(-c3ccncc3)nc2c1`: the MIC in data set [2] came out at 4 µM (≈ 1.58 µg/mL); in data set [4], 4 µM; in [5], 1.9 µM (≈ 0.751 µg/mL); in data set [6], 6.3 µM. Further, the outcome in data set [7] and in data set [8] was Active. For the same molecule, the pKi (at GMP reductase 2; in data set [3]) was under 5.30 each time.
With `C[C@H](Oc1cccc(Cl)c1Cl)C(=O)Nc1ccc2oc(-c3ccc(C(=O)NO)cc3)nc2c1`, the MIC is 3 µM (≈ 1.46 µg/mL) in data set [2], over 50 µM in data set [4], 30 µM (≈ 14.6 µg/mL) in [5] and 6 µM in data set [6]. Also, in data set [7], the result was Active. Further, the pKi (on GMP reductase 2; in data set [3]) was under 5.30 throughout.
`C#CCOC(=O)COc1ccc(-c2nc3cc(NC(=O)[C@H](C)Oc4cccc(Cl)c4Cl)ccc3o2)cc1`: the MIC amounted to 0.4 µM (≈ 0.216 µg/mL) in data set [2], 0.4 µM in [4], 0.2 µM (≈ 0.108 µg/mL) in [5] and 1.4 µM in [6]. Besides, the result in data set [7] and in data set [8] was Active. Further, the negative-log Ki (pKi) (at GMP reductase 2; in [3]) was under 5.30 each time. Besides, the Activity result in the data set on HepG2 [18] is on record as “Non-Toxic”.
With `C[C@H](Oc1cccc(Cl)c1Cl)C(=O)Nc1ccc2oc(-c3ccc(OC(F)(F)F)cc3)nc2c1`, the MIC in [2], in data set [4], in data set [5] and in data set [6] was over 50 µM in each case. Further, the pKi (on GMP reductase 2; in data set [3]) was under 5.30 throughout.
For `C[C@H](Oc1cccc(F)c1F)C(=O)Nc1ccc2oc(-c3ccc(O)cc3)nc2c1`, the minimum inhibitory concentration (MIC) in [2] was 6 µM (≈ 2.46 µg/mL); in [4] it was over 30 µM; in data set [5], 7 µM (≈ 2.87 µg/mL); in data set [6] it was 19 µM. Further, the pKi (at GMP reductase 2; in [3]) was under 5.30 in each case.
As for `COc1ccc(OC(C)C(=O)Nc2ccc3oc(-c4ccncc4)nc3c2)cc1` (stereo not given), the MIC in data set [2] was 5.3 µM (≈ 2.06 µg/mL); in data set [15], 12.5 µM; in data set [4], 21 µM; in [5] it was 10 to 12.5 µM (≈ 3.89 to 4.87 µg/mL); in data set [6], 24 µM. Also, the pKi (at GMP reductase 2; in data set [3]) was under 5.30 throughout.
As to `C[C@H](Oc1cccc(Cl)c1Cl)C(=O)Nc1ccc2oc(-c3ccc(C#N)cc3)nc2c1`, the MIC in data set [2] amounted to 4 µM (≈ 1.81 µg/mL); in data set [4] it was 6 µM; in data set [5], 3 µM (≈ 1.36 µg/mL); in data set [6], 5 µM. Further, the figures for the pKi (on GMP reductase 2; in data set [3]) were under 5.30 and 5.64, respectively.
On to `C[C@H](Oc1cccc(Cl)c1Cl)C(=O)Nc1ccc2oc(-c3ccc(C(=O)O)cc3)nc2c1`, for which the MIC in data set [2] was 4 µM (≈ 1.89 µg/mL); in data set [4] it was over 50 µM; in [5], at least 25 µM; in data set [6], 5 µM. In [7], the outcome was Active. In addition, the pKi (at GMP reductase 2; in data set [3]) was under 5.30 each time.
Turning to `C[C@H](Oc1cccc(F)c1C#N)C(=O)Nc1ccc2oc(-c3ccncc3)nc2c1`, the MIC turned out to be 6 µM (≈ 2.41 µg/mL) in [2], 8 µM in data set [4], 4 µM (≈ 1.61 µg/mL) in data set [5] and 11 µM in data set [6]. Moreover, the pKi (at GMP reductase 2; in [3]) was under 5.30 each time.

The term MIC denotes the least concentration at which growth counts as inhibited. As usually defined, the pKi is the negative decadic logarithm of the Ki, by convention in mol/L. A word on the Cmax: it is the peak of the concentration-time curve. One may read the Tmax as the time from dosing to the highest level.
